Read-outs that look alike come from different tables or passages of the source.
Legend:
[1] = system: Pim-1 stably transfected U2OS human osteogenic sarcoma line; assay: Pim cell assay U2OS (phospho-BAD normalized against total BAD), Pim-1 transfected; format: cell-based; conditions: Homo sapiens, U2OS
[2] = target: full length recombinant Pim-3 (Homo sapiens (Human), UniProt Q86V86); assay: Pim enzyme assay (HTRF, phosphorylation of biotinylated-BAD (S112) peptide), Pim-3; format: biochemical; conditions: read-out: Pim3 IC50
How it was run: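 IC50 values were fitted with a 4-parameter logistic model to percent-of-control HTRF signal (Eu anti-phospho-BAD S112 antibody/streptavidin-APC). Reactions used full-length Pim-3 and biotin-BAD (S112) peptide, ran 1 h 30 min at RT (22 °C) in Hepes pH 7.0 buffer with BSA and DTT, and were stopped by 3 mM EDTA.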

[3] = target: full length recombinant Pim-2 (Homo sapiens (Human), UniProt Q9P1W9); assay: Pim enzyme assay (HTRF, phosphorylation of biotinylated-BAD (S112) peptide), Pim-2; format: biochemical; conditions: read-out: Pim2_IC50
[4] = target: full length recombinant Pim-1 (Homo sapiens (Human), UniProt P11309); assay: Pim enzyme assay (HTRF, phosphorylation of biotinylated-BAD (S112) peptide), Pim-1; format: biochemical; conditions: read-out: Pim_1_IC50
[5] = system: Pim-2 stably transfected U2OS human osteogenic sarcoma line; assay: Pim cell assay U2OS (phospho-BAD normalized against total BAD), Pim-2 transfected; format: cell-based; conditions: Homo sapiens, read-out: U2OS Pim2_Cell_IC50
Method: The cell lines used in the assay were generated by the stable transfection of either Pim-1 or Pim-2 into the U2OS human osteogenic sarcoma line. The assay for determination of the Pim activity in the engineered U2OS cell lines measures levels of phospho-BAD normalized against total BAD protein levels. It was conducted as follows:
The adherent cells were dissociated from the flasks using non-enzymatic cell dissociation solution (Sigma #C5914). […] The cells were then incubated overnight at 37° C., 5% CO2.
In addition to the 10-point dosing curve of the test compound, DMSO alone was run as the high control.
This dilution in DMSO was then diluted again into cell growth medium. Aliquots (12 μL) of the compound diluted in growth medium were then transferred to the appropriate wells of the 96-well plates containing cells to a final DMSO concentration of 0.3%. The cell plates were then incubated with compound for 29 min at 37° C., 5% CO2.
The cell plates containing lysis buffer were then immediately stored at −70° C.
These prepared lysates were then assayed for phospho and total BAD according to the manufacturer's protocols (Meso Scale Diagnostics, Cat#K15103C-3 & #K15103D-3). The plates were read on the MSD Sector Imager 6000, and results were calculated according to the assay protocols ((% Phosphoprotein=((2×Phospho signal)/(Phospho signal+Total signal))×100)).

[6] = read-out: U2OS Pim1_Cell_IC50, U2OS cells, Pim-1 transfected

Chain of full length recombinant Pim-2 (Q9P1W9 whole entry): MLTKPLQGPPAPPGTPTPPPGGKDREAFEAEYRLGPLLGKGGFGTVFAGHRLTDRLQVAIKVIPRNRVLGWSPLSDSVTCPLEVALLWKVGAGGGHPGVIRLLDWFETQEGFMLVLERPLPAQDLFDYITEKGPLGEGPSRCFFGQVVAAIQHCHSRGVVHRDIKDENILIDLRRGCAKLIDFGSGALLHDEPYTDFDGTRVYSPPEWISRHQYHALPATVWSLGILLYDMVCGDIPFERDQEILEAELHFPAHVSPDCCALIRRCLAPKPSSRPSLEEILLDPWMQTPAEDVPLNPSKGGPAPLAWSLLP
Chain of full length recombinant Pim-1 (P11309 whole entry): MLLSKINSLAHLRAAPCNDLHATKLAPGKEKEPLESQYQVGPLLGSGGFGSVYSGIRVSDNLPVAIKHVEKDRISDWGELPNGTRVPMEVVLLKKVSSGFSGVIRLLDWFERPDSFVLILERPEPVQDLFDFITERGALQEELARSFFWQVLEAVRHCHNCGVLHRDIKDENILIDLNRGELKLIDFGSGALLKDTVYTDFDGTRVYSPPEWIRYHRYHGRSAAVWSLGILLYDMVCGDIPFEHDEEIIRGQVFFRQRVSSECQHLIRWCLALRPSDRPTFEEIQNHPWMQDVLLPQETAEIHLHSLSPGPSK

Nc1nnc(-c2ccc3[nH]cc(-c4cncc(NC5CCCC5)n4)c3c2)o1 [Example 4, 5-(3-(6-(cyclopentylamino)pyrazin-2-yl)-1H-indol-5-yl)-1,3,4-oxadiazol-2-amine]
IC50 ([1]; read-out: U2OS Pim1_Cell_IC50): 27 nM | IC50 ([2]; Pim-3 enzyme assay): 0.586 nM | IC50 ([3]; Pim-2 enzyme assay): 2 nM | IC50 ([4]; Pim-1 enzyme assay): 1.01 nM | IC50 ([5]; U2OS cells, Pim-2 transfected): 342 nM

Nc1nnc(-c2ccc3[nH]cc(-c4cccc(N5CCOCC5)n4)c3c2)o1 [Example 6, 5-(3-(6-morpholinopyridin-2-yl)-1H-indol-5-yl)-1,3,4-oxadiazol-2-amine]
IC50 [1, 6]: 61.9 nM | IC50 ([2]; Pim-3 enzyme assay): 5.74 nM | IC50 ([3]; Pim-2 enzyme assay): 20.8 nM | IC50 ([4]; Pim-1 enzyme assay): 5.91 nM | IC50 ([5]; U2OS cells, Pim-2 transfected): 2110 nM

Nc1nnc(-c2ccc3[nH]cc(-c4nccc(N5CCOCC5)n4)c3c2)s1 [Example 11, 5-(3-(4-morpholinopyrimidin-2-yl)-1H-indol-5-yl)-1,3,4-thiadiazol-2-amine]
IC50 ([1]; read-out: U2OS Pim1_Cell_IC50): 911 nM | IC50 ([2]; Pim-3 enzyme assay): 7.69 nM | IC50 ([3]; Pim-2 enzyme assay): 8.61 nM | IC50 ([4]; Pim-1 enzyme assay): 19.7 nM | IC50 ([5]; U2OS cells, Pim-2 transfected): 2200 nM

CN1CCN(c2cccc(-c3c[nH]c4ccc(-c5nnc(N)s5)cc34)n2)CC1 [Example 13, 5-(3-(6-(4-methylpiperazin-1-yl)pyridin-2-yl)-1H-indol-5-yl)-1,3,4-thiadiazol-2-amine]
IC50 [1, 6]: 198 nM | IC50 [2]: 0.625 nM | IC50 [3]: 10.9 nM | IC50 [4]: 2.02 nM | IC50 ([5]; U2OS): 3010 nM

Nc1nnc(-c2ccc3[nH]cc(-c4cncc(NC5CCCC5)n4)c3c2)s1 [Example 17, 5-(3-(6-(cyclopentylamino)pyrazin-2-yl)-1H-indol-5-yl)-1,3,4-thiadiazol-2-amine 2,2,2-trifluoroacetate]
IC50 ([1]; read-out: U2OS Pim1_Cell_IC50): 56.6 nM | IC50 [2]: 0.763 nM | IC50 [3]: 5.92 nM | IC50 [4]: 1.5 nM | IC50 ([5]; U2OS): 1220 nM

CN1CCN(c2cncc(-c3c[nH]c4ccc(-c5nnc(N)s5)cc34)n2)CC1=O [Example 18, 4-(6-(5-(5-amino-1,3,4-thiadiazol-2-yl)-1H-indol-3-yl)pyrazin-2-yl)-1-methylpiperazin-2-one]
IC50 ([1]; read-out: U2OS Pim1_Cell_IC50): > 31600 nM | IC50 ([2]; Pim-3 enzyme assay): 7.41 nM | IC50 ([3]; Pim-2 enzyme assay): 89.2 nM | IC50 ([4]; Pim-1 enzyme assay): 15.8 nM | IC50 ([5]; U2OS cells, Pim-2 transfected): > 31600 nM

CCOc1cncc(-c2c[nH]c3ccc(-c4nnc(N)s4)cc23)n1 [Example 19, 5-(3-(6-ethoxypyrazin-2-yl)-1H-indol-5-yl)-1,3,4-thiadiazol-2-amine]
IC50 [1, 6]: 205 nM | IC50 ([2]; Pim-3 enzyme assay): 7.8 nM | IC50 ([3]; Pim-2 enzyme assay): 27.8 nM | IC50 ([4]; Pim-1 enzyme assay): 19.7 nM | IC50 ([5]; U2OS cells, Pim-2 transfected): 2750 nM

c1cc(-c2c[nH]c3ccc(-c4nncs4)cc23)nc(N2CCOCC2)c1 [Example 28, 4-(6-(5-(1,3,4-thiadiazol-2-yl)-1H-indol-3-yl)pyridin-2-yl)morpholine]
IC50 ([1]; read-out: U2OS Pim1_Cell_IC50): 1070 nM | IC50 ([2]; Pim-3 enzyme assay): 27 nM | IC50 ([3]; Pim-2 enzyme assay): 157 nM | IC50 ([4]; Pim-1 enzyme assay): 40.7 nM | IC50 ([5]; U2OS cells, Pim-2 transfected): > 31600 nM

Nc1nnc(-c2ccc3[nH]cc(-c4cccc(-c5ccc(Cl)cc5)n4)c3c2)s1 [Example 31, 5-(3-(6-(4-chlorophenyl)pyridin-2-yl)-1H-indol-5-yl)-1,3,4-thiadiazol-2-amine]
IC50 [1, 6]: 1090 nM | IC50 [2]: 13.6 nM | IC50 [3]: 75.5 nM | IC50 [4]: 37.4 nM | IC50 ([5]; U2OS cells, Pim-2 transfected): 28300 nM

CC(C)Oc1cccc(-c2c[nH]c3ccc(-c4nnc(N5CC[C@@H](N)C5)s4)cc23)n1 [Example 33, (R)-1-(5-(3-(6-Isopropoxypyridin-2-yl)-1H-indol-5-yl)-1,3,4-thiadiazol-2-yl)pyrrolidin-3-amine 2,2,2-trifluoroacetate]
IC50 [1, 6]: 328 nM | IC50 [2]: 1.32 nM | IC50 [3]: 16.7 nM | IC50 ([4]; Pim-1 enzyme assay): 8.84 nM | IC50 ([5]; U2OS): 19500 nM

CC(C)Oc1cccc(-c2c[nH]c3ccc(-c4nnc(N5CC[C@H](N)C5)s4)cc23)n1 [Example 34, (S)-1-(5-(3-(6-Isopropoxypyridin-2-yl)-1H-indol-5-yl)-1,3,4-thiadiazol-2-yl)pyrrolidin-3-amine 2,2,2-trifluoroacetate]
IC50 [1, 6]: 280 nM | IC50 [2]: 1.51 nM | IC50 [3]: 24.8 nM | IC50 ([4]; Pim-1 enzyme assay): 10.5 nM | IC50 ([5]; U2OS): > 31600 nM

— patent US9321756B2, “Azole compounds as PIM inhibitors” (priority 2011, dated 2016)
